Test results from patent publication US20100029710A1, “COMPOUNDS HAVING BOTH ANGIOTENSIN II RECEPTOR ANTAGONISM AND PPARy ACTIVATING ACTIVITIES” (Pfizer Products Inc., priority 2006, published 2010).

Legend:
[1] = target: T1, human PPARγ LBD bound to Gal4 DBD (Homo sapiens, UniProt P37231); test: PPARγ transfection luciferase reporter assay in HepG2 cells; assay type: cell-based; conditions: for Emax: HepG2, 24 h, compared to full agonist response (standard TZD full agonist), read-out: PPARγ % activation; for EC50: HepG2, 24 hours exposure
T1 construct: expressed in transfected cells; host or cells: HepG2
T1 sequence (P37231 238-503 limits assumed): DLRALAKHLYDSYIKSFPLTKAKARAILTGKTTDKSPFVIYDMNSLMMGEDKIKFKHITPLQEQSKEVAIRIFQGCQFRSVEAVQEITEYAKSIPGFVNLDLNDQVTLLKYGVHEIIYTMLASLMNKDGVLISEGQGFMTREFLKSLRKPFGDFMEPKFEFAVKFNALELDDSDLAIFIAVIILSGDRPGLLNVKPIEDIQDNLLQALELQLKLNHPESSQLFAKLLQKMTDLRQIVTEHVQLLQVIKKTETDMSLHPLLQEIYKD
Procedure, shortened: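 HepG2 cells transiently co-transfected with Gal4 DBD–PPARγ LBD, luciferase reporter and β-galactosidase, then exposed 24 h to compound (0.1 nM–100 μM). Luciferase/β-gal ratio gives activation. EC50 is relative to each compound's own maximum; efficacy is % of a reference TZD full agonist.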

ZDF male rat = test: Glucose lowering in vivo assay; conditions: 10 mg/kg p.o. once daily for 28 days; for Difference from Vehicle Control: blood glucose
Text: Homozygous expression of this mutation leads to a phenotype of hyperphagia, obesity, insulin resistance, hyperglycemia, and hypertriglyceridemia resulting in uncontrolled diabetes, β-cell failure, severe nephropathy, and proteinuria by 16 weeks of age.
The hypoglycemic activity of the compounds of this invention can be determined by the amount of test compound that delays or suppresses elevations in glucose levels relative to a vehicle without test compound in male ZDF rats.
Male Zucker Diabetic Fatty (ZDF/Crl-Lepr^fa) rats were obtained from Charles River Laboratories (Wilmington, Mass.). Rats were pair housed under a 12-h light/dark cycle with free access to water and Purina 5008 rat chow (Protein 26.8%, fat 16.7%, carbohydrates 56.5% kcal/vol; Purina Mills, Richmond, Ind.). Prior to the onset of diabetic hyperglycemia (fed blood glucose<200 mg/dl) rats were randomly allocated to groups based on HOMA values. The Homeostasis Model Assessment (HOMA) calculation estimates peripheral insulin resistance from corresponding insulin and glucose measurements. Rats were administered a once daily oral dose for 28 days with suspensions of vehicle alone (1.5% carboxymethyl-cellulose plus 0.2% Tween 20), vehicle plus test compound in the range 0.1-100 mg/kg. At the end of the study, an oral glucose tolerance test (OGTT, 2 g/kg dextrose) was conducted to measure glucose excursion. Tail venipuncture in conscious, 1 hr fasted animals at baseline and weekly thereafter, provided sample for blood glucose, serum insulin, triglycerides, cholesterol, and FFA measurements. Glucose levels were determined with a HemoCue Glucose Monitor (Ryan Diagnostics), insulin was determined by ELISA (Alpco), and lipids were determined by Cobas Mira Analyzer (Roche) and by enzymatic assays (Wako). Lipoprotein cholesterol was determined by FPLC following the method of Kieft et al. (Kieft K A, Bocan T M, Krause B R. Rapid on-line determination of cholesterol distribution among plasma lipoproteins after high-performance gel filtration chromatography. J Lipid Res 1991; 32(5): 859-66). Briefly, plasma was separated on a Superose 6HR 10/30 column (Pharmacia) and cholesterol was then measured in-line utilizing a post-column enzymatic cholesterol assay (Roche). Percent of total area for each lipoprotein fraction were calculated. These percent areas were then multiplied by the total plasma cholesterol concentration, yielding the cholesterol concentration in each fraction. Efficacy was determined by comparison to untreated vehicle controls and reference agents and active compounds selected for further evaluation.

[2] = test system: Spontaneously hypertensive rats (SHR); test: Blood pressure reduction in vivo assay (radiotelemetry); conditions: SHR rat, single dose 10 mg/kg p.o.
Description: The rats are surgically implanted with radio-telemetry transmitters to allow capture of conscious, unrestrained systolic and diastolic BP as well as heart rate.
In vivo studies were conducted to show the effectiveness of a compound in reducing blood pressure due to its angiotensin II receptor antagonist activity, and its ability to induce insulin sensitization in a diabetic rat due to its PPARγ agonist activity.
Spontaneously hypertensive rats (SHR) were implanted with radiotelemetry devices capable of measuring blood pressure (BP) via an aortic cannula and transmitting the data to a receiving pad under the cage. Animals were conscious and had access to food and water ad libitum while blood pressure was monitored continuously. Rats were dosed with vehicle and monitored for 24 hours to establish baseline before administering compound and measuring changes in blood pressure for another 24 hours. Changes in blood pressure were calculated over time and compared to vehicle controls.

[3] = target: T2, Human recombinant AT1 receptor (Homo sapiens, UniProt P30556); test: AT1 receptor radioligand binding (flashplate); conditions: 125I Sar1,Ile8-Angiotensin II radioligand
T2 construct: purchased
T2 sequence (P30556 1-359): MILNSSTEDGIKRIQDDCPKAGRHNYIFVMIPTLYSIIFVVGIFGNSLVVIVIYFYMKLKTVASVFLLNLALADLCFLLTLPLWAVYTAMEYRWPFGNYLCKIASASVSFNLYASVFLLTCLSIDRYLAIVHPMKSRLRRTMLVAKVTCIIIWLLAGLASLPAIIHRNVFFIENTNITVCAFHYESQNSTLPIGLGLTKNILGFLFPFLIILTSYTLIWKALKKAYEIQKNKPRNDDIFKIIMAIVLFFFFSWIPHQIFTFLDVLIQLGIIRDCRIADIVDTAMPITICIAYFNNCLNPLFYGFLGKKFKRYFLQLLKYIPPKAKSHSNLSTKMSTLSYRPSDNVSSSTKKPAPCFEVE
Procedure, shortened: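 Human recombinant AT1 receptor was coated on flashplates and competed against 125I-Sar1,Ile8-angiotensin II at its Kd concentration for 2 h at room temperature. Compounds were tested from […], with nonspecific binding defined by 10 μM angiotensin II. Ki was derived via Cheng-Prusoff.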

SMILES	Emax [1] [%]	EC50 [1] [nM]	IC50 [3] [nM]	Blood Glucose (1 h Fast) after single daily dose of 10 mg/kg p.o. for 28 days (ZDF male rat) [mg/dL]	Difference from Vehicle Control (ZDF male rat) [mg/dL]	Duration of activity [2] [h]	Maximal fall in Mean Blood Pressure after single dose of 10 mg/kg p.o. (mmHg) [2] [mmHg]
CCc1nc2c(C)cc(CCOC)nc2n1[C@H]1CCc2cc(-c3ccccc3-c3nnn[nH]3)ccc21 [Example 13, 3-((1S)-5-(2-(1H-tetrazol-5-yl)phenyl)-2,3-dihydro-1H-inden-1-yl)-2-ethyl-5-(2-methoxyethyl)-7-methyl-3H-imidazo[4,5-b]pyridine]	26	435	2.5	120	-469	>20	−46
CCc1nc2c(C)cc(CCO)nc2n1[C@H]1CCc2cc(-c3ccccc3-c3nnn[nH]3)ccc21 [Example 13a, 2-(3-((1S)-5-(2-(1H-tetrazol-5-yl)phenyl)-2,3-dihydro-1H-inden-1-yl)-2-ethyl-7-methyl-3H-imidazo[4,5-b]pyridin-5-yl)ethanol]	24	415	4.1	112	-477	>20	−28
CCc1nc2c(C)cc([C@@H](O)C(C)C)nc2n1[C@H]1CCc2cc(-c3ccccc3-c3nnn[nH]3)ccc21 [Example 10, (S)-1-(3-((1S)-5-(2-(1H-tetrazol-5-yl)phenyl)-2,3-dihydro-1H-inden-1-yl)-2-ethyl-7-methyl-3H-imidazo[4,5-b]pyridin-5-yl)-2-methylpropan-1-ol]	27	145	1.6	239	-133	>20	−27
CCc1nc2c(C)cc(CCc3cccc(OC)c3)nc2n1[C@H]1CCc2cc(-c3ccccc3-c3nnn[nH]3)ccc21 [Example 29, 3-((1S)-5-(2-(1H-tetrazol-5-yl)phenyl)-2,3-dihydro-1H-inden-1-yl)-5-(3-methoxyphenethyl)-2-ethyl-7-methyl-3H-imidazo[4,5-b]pyridine]	31	195	2.9				
CCc1nc2c(C)cc(Cc3ccccn3)nc2n1[C@H]1CCc2cc(-c3ccccc3-c3nnn[nH]3)ccc21 [Example 2, 3-((1S)-5-(2-(1H-tetrazol-5-yl)phenyl)-2,3-dihydro-1H-inden-1-yl)-2-ethyl-7-methyl-5-(pyridin-2-ylmethyl)-3H-imidazo[4,5-b]pyridine]	29	105	3.5				
CCc1nc2c(C)cc(Cc3ccccc3)nc2n1[C@H]1CCc2cc(-c3ccccc3-c3nnn[nH]3)ccc21 [Example 1, 3-((1S)-5-(2-(1H-tetrazol-5-yl)phenyl)-2,3-dihydro-1H-inden-1-yl)-5-benzyl-2-ethyl-7-methyl-3H-imidazo[4,5-b]pyridine]	27	90	4.5				
CCc1nc2c(C)cc(CC(C)=O)nc2n1[C@H]1CCc2cc(-c3ccccc3-c3nnn[nH]3)ccc21 [Example 14, 1-(3-((1S)-5-(2-(1H-tetrazol-5-yl)phenyl)-2,3-dihydro-1H-inden-1-yl)-2-ethyl-7-methyl-3H-imidazo[4,5-b]pyridin-5-yl)propan-2-one]	21	410	5				
CCc1nc2c(C)cc(CC(C)(C)O)nc2n1[C@H]1CCc2cc(-c3ccccc3-c3nnn[nH]3)ccc21 [Example 16, 1-(3-((1S)-5-(2-(1H-tetrazol-5-yl)phenyl)-2,3-dihydro-1H-inden-1-yl)-2-ethyl-7-methyl-3H-imidazo[4,5-b]pyridin-5-yl)-2-methylpropan-2-ol]	20	250	2.9	114	-475	>20	−37
CCc1nc2c(C)cc([C@H](O)c3ccccc3)nc2n1[C@H]1CCc2cc(-c3ccccc3-c3nnn[nH]3)ccc21 [Example 8b, (R)-(3-((1S)-5-(2-(1H-tetrazol-5-yl)phenyl)-2,3-dihydro-1H-inden-1-yl)-2-ethyl-7-methyl-3H-imidazo[4,5-b]pyridin-5-yl)(phenyl)methanol]	25	100	1.5				

Further lines, with some results ahead:

Emax [1] [%]	EC50 [1] [nM]	IC50 [3] [nM]	SMILES	Blood Glucose (1 h Fast) after single daily dose of 10 mg/kg p.o. for 28 days (ZDF male rat) [mg/dL]	Difference from Vehicle Control (ZDF male rat) [mg/dL]	Duration of activity [2] [h]	Maximal fall in Mean Blood Pressure after single dose of 10 mg/kg p.o. (mmHg) [2] [mmHg]
21	965	0.9	CCCc1nc2c(C)cc(CC[C@H](C)O)nc2n1[C@H]1CCc2cc(-c3ccccc3-c3nnn[nH]3)ccc21 [Example 41, (S)-4-(3-((1S)-5-(2-(1H-tetrazol-5-yl)phenyl)-2,3-dihydro-1H-inden-1-yl)-7-methyl-2-propyl-3H-imidazo[4,5-b]pyridin-5-yl)butan-2-ol]				
36	290	1.3	CCc1nc2c(C)cc(CCC3(O)CCCCC3)nc2n1[C@H]1CCc2cc(-c3ccccc3-c3nnn[nH]3)ccc21 [Example 52, 1-(2-(3-((1S)-5-(2-(1H-tetrazol-5-yl)phenyl)-2,3-dihydro-1H-inden-1-yl)-2-ethyl-7-methyl-3H-imidazo[4,5-b]pyridin-5-yl)ethyl)cyclohexanol]				
12	595	2.1	CCc1nc2c(C)cc(CCC(O)c3cccnc3)nc2n1[C@H]1CCc2cc(-c3ccccc3-c3nnn[nH]3)ccc21 (stereo partly drawn) [Example 34, 3-(3-((1S)-5-(2-(1H-tetrazol-5-yl)phenyl)-2,3-dihydro-1H-inden-1-yl)-2-ethyl-7-methyl-3H-imidazo[4,5-b]pyridin-5-yl)-1-(pyridin-3-yl)propan-1-ol]				
38	475	1.1	CCc1nc2c(C)cc(CCC(O)CC)nc2n1[C@H]1CCc2cc(-c3ccccc3-c3nnn[nH]3)ccc21 (stereo partly drawn) [Example 44, 1-(3-((1S)-5-(2-(1H-tetrazol-5-yl)phenyl)-2,3-dihydro-1H-inden-1-yl)-2-ethyl-7-methyl-3H-imidazo[4,5-b]pyridin-5-yl)pentan-3-ol]				
23	390	0.5	CCCc1nc2c(C)cc(CCC(C)(C)O)nc2n1[C@H]1CCc2cc(-c3ccccc3-c3nnn[nH]3)ccc21 [Example 35, 4-(3-((1S)-5-(2-(1H-tetrazol-5-yl)phenyl)-2,3-dihydro-1H-inden-1-yl)-7-methyl-2-propyl-3H-imidazo[4,5-b]pyridin-5-yl)-2-methylbutan-2-ol]				
